Laboratory results taken from patent publication US20110105515A1, “TARGETING THE ONCOPROTEIN NUCLEOPHOSMIN” (President and Fellows of Harvard College, priority 2007, published 2011).

How the values were obtained:
COLO 205 = COLO 205 (Colon Cancer), 48 hours, SRB
HOP-62 = HOP-62 (Non-Small Cell Lung Cancer), 48 hours, SRB
NCI-H226 = NCI-H226 (Non-Small Cell Lung Cancer), 48 hours, SRB
DU-145 = DU-145 (Prostate Cancer), 48 hours, SRB
A498 = A498 (Renal Cancer), 48 hours, SRB
SF-539 = SF-539 (CNS Cancer), 48 hours, SRB
SF-268 = SF-268 (CNS Cancer), 48 hours, SRB
NCI-H460 = NCI-H460 (Non-Small Cell Lung Cancer), 48 hours, SRB
HCC-2998 = HCC-2998 (Colon Cancer), 48 hours, SRB
MCF7 = MCF7 (Breast Cancer), 48 hours, SRB
OVCAR-4 = OVCAR-4 (Ovarian Cancer), 48 hours, SRB
KM12 = KM12 (Colon Cancer), 48 hours, SRB
ACHN = ACHN (Renal Cancer), 48 hours, SRB
SF-295 = SF-295 (CNS Cancer), 48 hours, SRB
SK-MEL-2 = SK-MEL-2 (Melanoma), 48 hours, SRB
CCRF-CEM = CCRF-CEM (Leukemia), 48 hours, SRB
OVCAR-8 = OVCAR-8 (Ovarian Cancer), 48 hours, SRB
SK-MEL-5 = SK-MEL-5 (Melanoma), 48 hours, SRB
K-562 = K-562 (Leukemia), 48 hours, SRB
SK-OV-3 = SK-OV-3 (Ovarian Cancer), 48 hours, SRB
SK-MEL-28 = SK-MEL-28 (Melanoma), 48 hours, SRB
RPMI-8226 = RPMI-8226 (Leukemia), 48 hours, SRB
MDA-MB-231/ATCC = MDA-MB-231/ATCC (Breast Cancer), 48 hours, SRB
PC-3 = PC-3 (Prostate Cancer), 48 hours, SRB
EKVX = EKVX (Non-Small Cell Lung Cancer), 48 hours, SRB
NCI-H23 = NCI-H23 (Non-Small Cell Lung Cancer), 48 hours, SRB
MDA-MB-468 = MDA-MB-468 (Breast Cancer), 48 hours, SRB
SN12C = SN12C (Renal Cancer), 48 hours, SRB
NCI/ADR-RES = NCI/ADR-RES (Breast Cancer), 48 hours, SRB
MALME-3M = MALME-3M (Melanoma), 48 hours, SRB
UACC62 = UACC62 (Melanoma), 48 hours, SRB

## CC1(C)C=Cc2c(ccc3c4c(n(O)c23)C(C)(C)C2CC35CCCN3C(=O)C2(NC5=O)C4SCC(NC(=O)CCC(N)C(=O)O)C(=O)NCC(=O)O)O1 (centres unmarked) [Glutathione Adduct]
COLO 205
  GI50: 649 nM
  TGI: 15100 nM
COLO 205; read-out: LC50
  CC50: 3510 nM
HOP-62
  GI50: 6670 nM
  TGI: 1380 nM
HOP-62; read-out: LC50
  CC50: 28600 nM
NCI-H226
  GI50: 802 nM
  TGI: 2290 nM
NCI-H226; read-out: LC50
  CC50: 8330 nM
DU-145
  GI50: 1160 nM
  TGI: 2650 nM
DU-145; read-out: LC50
  CC50: 7880 nM
A498
  GI50: 804 nM
  TGI: 1830 nM
A498; read-out: LC50
  CC50: 4160 nM
SF-539
  GI50: 838 nM
  TGI: 2030 nM
SF-539; read-out: LC50
  CC50: 4900 nM
SF-268
  GI50: 1130 nM
  TGI: 2880 nM
SF-268; read-out: LC50
  CC50: 10900 nM
NCI-H460
  GI50: 1110 nM
  TGI: 2410 nM
NCI-H460; read-out: LC50
  CC50: 23200 nM
HCC-2998
  GI50: 759 nM
  TGI: 1510 nM
HCC-2998; read-out: LC50
  CC50: 3020 nM
MCF7
  GI50: 840 nM
  TGI: 3180 nM
MCF7; read-out: LC50
  CC50: 33600 nM
OVCAR-4
  GI50: 742 nM
  TGI: 2490 nM
OVCAR-4; read-out: LC50
  CC50: 10100 nM
KM12
  GI50: 979 nM
  TGI: 1910 nM
KM12; read-out: LC50
  CC50: 3730 nM
ACHN
  GI50: 961 nM
  TGI: 3220 nM
ACHN; read-out: LC50
  CC50: 12300 nM
SF-295
  GI50: 1450 nM
  TGI: 6580 nM
SF-295; read-out: LC50
  CC50: 24400 nM
SK-MEL-2
  GI50: 877 nM
  TGI: 2440 nM
SK-MEL-2; read-out: LC50
  CC50: 10900 nM
CCRF-CEM
  GI50: 672 nM
  TGI: 2030 nM
CCRF-CEM; read-out: LC50
  CC50: 35000 nM
OVCAR-8
  GI50: 1600 nM
  TGI: 6380 nM
OVCAR-8; read-out: LC50
  CC50: 29800 nM
SK-MEL-5
  GI50: 826 nM
  TGI: 1860 nM
SK-MEL-5; read-out: LC50
  CC50: 4170 nM
K-562
  GI50: 1010 nM
  TGI: 4660 nM
K-562; read-out: LC50
  CC50: > 50000 nM
SK-OV-3
  GI50: 1300 nM
  TGI: 5060 nM
SK-OV-3; read-out: LC50
  CC50: 16100 nM
SK-MEL-28
  GI50: 985 nM
  TGI: 1950 nM
SK-MEL-28; read-out: LC50
  CC50: 3870 nM
RPMI-8226
  GI50: 159 nM
  TGI: 1140 nM
RPMI-8226; read-out: LC50
  CC50: > 50000 nM
MDA-MB-231/ATCC
  GI50: 931 nM
  TGI: 3680 nM
MDA-MB-231/ATCC; read-out: LC50
  CC50: 14700 nM
PC-3
  GI50: 906 nM
  TGI: 2590 nM
PC-3; read-out: LC50
  CC50: 11600 nM
EKVX
  GI50: 1110 nM
  TGI: 5400 nM
EKVX; read-out: LC50
  CC50: 18900 nM
NCI-H23
  GI50: 1090 nM
  TGI: 3070 nM
NCI-H23; read-out: LC50
  CC50: 14900 nM
MDA-MB-468
  GI50: 674 nM
  TGI: 1620 nM
SN12C
  GI50: 1510 nM
  TGI: 5640 nM
SN12C; read-out: LC50
  CC50: 17800 nM
NCI/ADR-RES
  GI50: 3940 nM
  TGI: 14000 nM
NCI/ADR-RES; read-out: LC50
  CC50: 44700 nM
MALME-3M
  GI50: 419 nM
  TGI: 3100 nM
MALME-3M; read-out: LC50
  CC50: 25100 nM
UACC62
  GI50: 649 nM
  TGI: 1720 nM
UACC62; read-out: LC50
  CC50: 4560 nM
